Test results: BindingDB's records for doi:10.7270/Q2N87841 (Burnham Center For Chemical Genomics, 2008)

Target: T1, Dual specificity protein phosphatase 6 (Rattus norvegicus, UniProt Q64346)
T1 sequence (Q64346 whole entry): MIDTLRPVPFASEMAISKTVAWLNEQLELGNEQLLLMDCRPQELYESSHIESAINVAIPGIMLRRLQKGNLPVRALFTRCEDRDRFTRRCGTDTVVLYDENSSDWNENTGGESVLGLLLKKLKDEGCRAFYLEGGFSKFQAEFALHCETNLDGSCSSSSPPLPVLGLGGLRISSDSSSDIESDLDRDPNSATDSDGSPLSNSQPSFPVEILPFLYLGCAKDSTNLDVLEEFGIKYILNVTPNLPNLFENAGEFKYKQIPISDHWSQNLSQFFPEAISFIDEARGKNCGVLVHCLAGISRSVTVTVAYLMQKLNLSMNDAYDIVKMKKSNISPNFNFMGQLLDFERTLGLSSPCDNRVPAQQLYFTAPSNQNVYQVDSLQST
Assay: MKP-3 phosphatase inhibitors, SAR follow-up, biochemical (AID 1055)
Settings: pH 7; 23 °C

IC50: 7.9 µM
SMILES: Cc1ccc2c(c1)C1C=CCC1C(C(=O)O)N2 (stereo unspecified) [MLS-0067149.0001]
